± gives the expanded uncertainty stated by the source.
Conditions: Crystal; visual observation

Normal melting temperature	SMILES
252 ± 1 °C	CC(C)(C)NC(=O)[C@H]1CC[C@H]2[C@@H]3CC[C@H]4NC(=O)C=C[C@]4(C)[C@H]3CC[C@]12C [finasteride]
242 ± 1 °C	C[C@]12C=CC(=O)N[C@@H]1CC[C@@H]1[C@@H]2CC[C@]2(C)[C@@H](C(=O)Nc3cc(C(F)(F)F)ccc3C(F)(F)F)CC[C@@H]12 [dutasteride]
111 ± 1 °C	CC(C)C(=O)Nc1ccc([N+](=O)[O-])c(C(F)(F)F)c1 [flutamide]

— the NIST ThermoML archive (doi:10.1021/je900520a)
